According to US11612606B2, “8-aminoisoquinoline compounds and uses thereof” (priority 2018, dated 2023):
Read-outs that look alike come from different tables or passages of the source.

What was measured:
[1] = target: HPK full length, T165E S171E (Homo sapiens (Human), UniProt Q92918, S171E/T165E); assay: HPK1-FL HTRF enzymatic assay ("HTRF"); format: biochemical; conditions: ATP 1 mM
Summary of the method: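 HTRF detection of phosphorylated biotin-SLP-76 used Eu-anti-pSLP76 antibody and SA-XL665, read after 60 min. The kinase reaction ran 60 min at […], following a 30-min compound preincubation with the full-length enzyme.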

[2] = Pharmacokinetic study in rat; format: in vivo, Sprague Dawley rat; conditions: male, Sprague Dawley
Description: Pharmacokinetic Study in Rat: Male Sprague Dawley rats obtained from Lingchang/Vital River Laboratory Animal Technology Co., Ltd., (Shanghai/Beijing, P.R. China) with body weight ranging between 200 g to 300 g were use in the PK studies. Group of 3 rats were given a 1 mg/kg intravenous bolus (IV) dose of the test article in solution formulation, and another group of 3 rats were given a 2 or 5 mg/kg oral (PO) dose of test article as a 0.5% methylcellulose with 0.2% Tween 80 (MCT) suspension or as a solution. Blood samples (250 μL, per time point) were collected serially via the catheter in femoral artery at 0.033, 0.083, 0.25, 0.5, 1, 2, 4, 6, and 8 hours after IV or PO administration from each of the rat. Blood samples were collected into pre-chilled tubes containing Potassium (K2) EDTA and centrifuged at 3,200 g for 10 minutes at 2 to 8° C. within 1 hour of collection to harvest plasma. Plasma samples were stored at −70° C. until LC/MS/MS analysis. Concentration in each plasma sample was determined by a non-validated LC/MS/MS. Data is acquired using multiple reaction monitoring (MRM) with specific transitions monitored for each compound.
Following PO administration, percent bioavailability (% F) was determined for each animal by dividing the dose normalized area under the plasma concentration-time curve, extrapolated to infinity (AUCinf) obtained following each PO dose by the mean dose normalized AUCinf of the animals dosed by IV injection. All PK parameters are presented as mean±standard deviation (SD).
Pharmacokinetic studies were conducted in rat for exemplary compounds of Formula (I).

[3] = system: phosphorylation of SLP-76 (S376) by HPK-1 in human Jurkat cells; assay: pSLP76 assay (sandwich ELISA, anti-CD3 stimulated Jurkat cells); format: cell-based; conditions: Homo sapiens, read-out: pSLP76 IC50
Description: Phospho-SLP76 (S376) is detected by sandwich ELISA using an anti-pSLP76(S376) capture antibody and a biotinylated anti-SLP76 detection antibody.
Incubate Jurkat cells with varying concentrations of test compounds for 30 minutes in a humidified incubator at 37° C. and 5% CO2. Add anti-CD3 DynaBeads at a 4:1 bead:cell ratio. Stimulate cells in a humidified incubator at 37° C. and 5% CO2 for 10 minutes. Add cold lysis buffer and incubate on a shaker at 4° C. for 30 minutes. Transfer cell lysates to a pre-blocked ELISA plate coated with capture antibody. Incubate at room temperature shaking for 2 hours. Wash ELISA plate 5× with wash buffer and add 25 μl of biotinylated detection antibody at a final concentration of 0.5 μg/ml. Incubate at room temperature shaking for 1 hour. Wash ELISA plate 5× with wash buffer and add 25 μl of streptavidin enzyme conjugate at a final dilution of 1:8000. Incubate at room temperature shaking for 20 minutes. Wash ELISA plate 5× with wash buffer and add 25 μl of TMB substrate solution. Incubate at room temperature in the dark shaking for 20 minutes. Add 25 μl of STOP solution and read on SoftMax Pro for absorbance at 450 nm.
Exemplary compounds of Formula (I) were tested in pSLP76 assays.

[4] = Permeability assay in gMDCKI cells; format: in vitro ADME, canine; conditions: dog, MDCK, apical-to-basolateral, 2-hour incubation, read-out: MDCK AB Papp
Description: Cell permeability of compounds of interest was assessed in the gMDCKI cell line, which is a modified MDCKI (Madin-Darby canine kidney) originally acquired from American Type Culture Collection (Manassa, Va.) and generated at Genentech. […] Test article was tested at 10 μM in the apical-to-basolateral (A-B) and basolateral-to-apical (B-A) directions. Test compound was dissolved in transport buffer consisting of Hank's balanced salt solution and […] (Invitrogen Corporation, Grand Island, N.Y.). Transepithelial electrical resistance (TEER) and lucifer yellow (LY) permeability were used to monitor monolayer integrity at the beginning and the end of the experiments, respectively. Test articles were analyzed by LC-MS/MS.
The efflux ratio (ER) is calculated as (Papp, B−A/Papp, A−B).
Cell permeability were assessed for exemplary compounds of Formula (I).

[5] = system: primary human pan T cells; assay: Human T-cell IL2 induction assay; format: cell-based
Description: Assay Principle: Anti-CD3 and anti-CD28 activates TCR signaling in primary human pan T cells leading to IL-2 promoter induction. Secreted IL-2 in cell culture supernatant is detected by electrochemiluminescence using a capture antibody against IL-2 and an anti-IL-2 antibody labeled with SULFO-tag. Also see www.mesoscale.com for additional electrochemiluminescence technology information.
Assay Procedure: Incubate primary human pan T cells with varying concentrations of test compounds for 30 minutes in a humidified incubator at 37° C. and 5% CO2. Transfer cells to a plate pre-coated with a fixed concentration of anti-human CD3 (determined separately for each donor lot) and add soluble anti-human CD28 (final concentration=1 μg/ml). Stimulate cells in a humidified incubator at 37° C. and 5% CO2 for 4 hours. Transfer 25 μl of supernatant to a MSD single spot plate pre-coated with an anti-human IL-2 antibody. Incubate MSD plate overnight at 4° C. with gentle shaking. Wash MSD plate 4× with wash buffer. Add SULFO-tagged detection antibody at a 1:50 dilution and incubate at room temperature shaking for 2 hours. Wash MSD plate 4× with wash buffer and add 150 μl 2×MSD read buffer. Read on an MSD instrument. Normalize data to stimulated/untreated controls to calculate % activity at each concentration of compound.
Instrumentation: • Biomek FX for liquid handling (Beckman Coulter) • MSD SECTOR S 600 (Meso Scale Discovery)
Exemplary compounds of Formula (I) were tested in the human T-cell IL-2 induction assays.

[6] = Hepatocyte stability assay; format: in vitro ADME; conditions: cryopreserved human hepatocytes (10 donor pool, suspension), scaled hepatic clearance, read-out: HHep Clearance
Description: Metabolic stability of compounds are assessed using a hepatocyte stability assay. Cryopreserved human hepatocytes from a 10 donor pool are quickly thawed at 37° C., suspended in prewarmed In VitroGRO™ HT Medium, and then centrifuged at 100×g at room temperature for 10 min. The supernatants are discarded, and cells are resuspended in 5 mL Dulbecco's Modified Eagle Medium (DMEM) medium. Cell viability in suspension is counted on a Hepatometer® Vision (Lonza, N.C.), and viable cells are then adjusted to […] in DMEM. Compounds are first diluted to 2 μM with DMEM medium, and then aliquots of 125 μL of drug-containing medium are transferred to 96-well non-coated plates. Incubation is initiated by the addition of 125 μL of hepatocyte suspension to yield a total incubation volume of 250 μL. Final concentration of each compound is 1 μM, and final cell density is 0.5×10^6 cells/mL. Incubations are conducted in a humidified incubator at 37° C. Aliquots of 50 μL incubation medium are taken out at different time intervals (0, 60, 120 and 180 min), and immediately mixed with 100 μL of ice-cold acetonitrile containing 50 nM propranolol (internal standard). Samples are then centrifuged at 10,000×g for 10 min, and 80 μL of supernatant is taken out and diluted with 160 μL of water prior to LC/MS-MS analysis.
Human hepatocyte stability was assessed for exemplary compounds of Formula (I) according to the above procedures.

[7] = Jurkat cells, anti-CD3 stimulation
[8] = plasma, PO 2 mg/kg, MCT, Suspension

Chain of HPK full length, T165E S171E (Q92918 whole entry T165E/S171E, looked up): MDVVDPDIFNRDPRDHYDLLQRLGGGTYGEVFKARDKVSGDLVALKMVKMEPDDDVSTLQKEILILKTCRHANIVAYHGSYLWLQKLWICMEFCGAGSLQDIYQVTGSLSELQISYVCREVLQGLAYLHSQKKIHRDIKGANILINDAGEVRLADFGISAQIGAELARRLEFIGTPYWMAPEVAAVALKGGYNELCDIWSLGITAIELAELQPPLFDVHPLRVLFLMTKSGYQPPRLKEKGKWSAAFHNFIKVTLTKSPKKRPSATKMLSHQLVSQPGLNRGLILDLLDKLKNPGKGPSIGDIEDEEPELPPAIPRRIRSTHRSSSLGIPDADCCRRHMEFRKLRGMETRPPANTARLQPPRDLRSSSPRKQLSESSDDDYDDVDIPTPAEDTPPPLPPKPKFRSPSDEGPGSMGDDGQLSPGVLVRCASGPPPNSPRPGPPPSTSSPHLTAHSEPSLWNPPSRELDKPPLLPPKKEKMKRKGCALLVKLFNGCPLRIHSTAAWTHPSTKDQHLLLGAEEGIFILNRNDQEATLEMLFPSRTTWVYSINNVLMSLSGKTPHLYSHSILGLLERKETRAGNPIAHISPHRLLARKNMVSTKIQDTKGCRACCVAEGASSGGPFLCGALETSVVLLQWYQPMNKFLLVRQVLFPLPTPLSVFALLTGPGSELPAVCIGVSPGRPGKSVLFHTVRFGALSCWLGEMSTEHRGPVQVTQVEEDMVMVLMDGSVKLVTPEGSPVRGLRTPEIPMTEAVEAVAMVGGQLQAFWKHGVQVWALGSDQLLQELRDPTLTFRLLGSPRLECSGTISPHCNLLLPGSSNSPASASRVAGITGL

Row | SMILES | Ki ([1]; read-out: HPK1 Ki) | IC50 [3, 7] | Papp at 2 h, 10 μM [4] | % IL-2 increase relative to untreated cells ([5]; assayed concentration 2.778 μM) | CLhep predicted at 1 μM [6] | IC50 ([3]; Jurkat) | also measured
1 | Cc1c(-c2cc3cc(NC(=O)O[C@H]4COC[C@@H]4C)ncc3c(N)c2F)cnc2c1NCCO2 (single isomer, unassigned) [Compound 441b] | < 0.013 nM | 36 nM | 15 ×10⁻⁶ cm/s | 1158% | 6.9 mL/min/kg |  | bioavailability ([2]; plasma, PO 2 mg/kg, 10/90 DMSO/MCT, Solution): 30%
2 | Cc1c(-c2cc3cc(NC(=O)O[C@@H]4COC[C@@H]4F)ncc3c(N)c2F)cnc2c1NCCO2 (single isomer, unassigned) [Compound 477d] |  | 66 nM | 16 ×10⁻⁶ cm/s |  | 5.7 mL/min/kg |  | Ki ([1]; HPK1 Ki): 0.02 nM; bioavailability ([2]; plasma, PO 2 mg/kg, 10% DMSO/60% PEG400/30% Water, Solution): 43%; % IL-2 increase relative to untreated cells ([5]; assayed concentration 8.33 μM): 1745%
3 | Cc1c(-c2cc3cc(NC(=O)O[C@@H]4CCC[C@H]4C#N)ncc3c(N)c2F)cnc2c1NCCO2 (single isomer, unassigned) [Compound 482a] | < 0.013 nM | 38 nM | 15 ×10⁻⁶ cm/s | 737% | 11 mL/min/kg |  | bioavailability ([2]; plasma, PO 5 mg/kg, MCT, pH = 2.5, Suspension): 41%
4 | Cc1c(-c2cc3cc(NC(=O)O[C@H]4CCO[C@H]4C)ncc3c(N)c2F)cnc2c1NCCO2 (single isomer, unassigned) [Compound 510c] | < 0.013 nM |  | 20 ×10⁻⁶ cm/s | 700% | 8.7 mL/min/kg | 62 nM | bioavailability [2, 8]: 28%
5 | CO[C@H]1COC[C@@H]1OC(=O)Nc1cc2cc(-c3cnc4c(c3C)NCCO4)c(F)c(N)c2cn1 (single isomer, unassigned) [Compound 546a] | < 0.013 nM | 62 nM | 10 ×10⁻⁶ cm/s |  | 6.5 mL/min/kg |  | bioavailability ([2]; plasma, PO 5 mg/kg, 10% DMSO/35% PEG400/55% Water, Solution): 22%; % IL-2 increase relative to untreated cells ([5]; assayed concentration 8.33 μM): 914%
6 | CCc1c(-c2cc3cc(NC(=O)O[C@@H]4COC[C@H]4C)ncc3c(N)c2F)cnc2c1NCCO2.Cl (single isomer, unassigned) [Compound 555b, (3S,4R)-4-Methyltetrahydrofuran-3-yl (8-amino-6-(8-ethyl-2,3-dihydro-1H-pyrido[2,3-b][1,4]oxazin-7-yl)-7-fluoroisoquinolin-3-yl)carbamate hydrochloride] |  |  | 15 ×10⁻⁶ cm/s |  |  |  | bioavailability ([2]; in vivo, PO 2 mg/kg, 10% DMSO/60% PEG400/30% Water, Solution): 34%
7 | CCc1c(-c2cc3cc(NC(=O)O[C@@H]4COC[C@H]4C)ncc3c(N)c2F)cnc2c1NCCO2.Cl (single isomer, unassigned) [Compound 555b, hydrochloride] | < 0.013 nM | 24 nM |  |  | 13 mL/min/kg |  | 
8 | Cc1c(-c2cc3cc(NC(=O)OC4CCOCC4)ncc3c(N)c2F)cnc2c1NCCO2 [Compound 401, Tetrahydropyran-4-yl N-[8-amino-7-fluoro-6-(8-methyl-2,3-dihydro-1H-pyrido[2,3-b][1,4]oxazin-7-yl)-3-isoquinolyl]carbamate] | 0.019 nM |  | 18 ×10⁻⁶ cm/s |  | 9.2 mL/min/kg | 97 nM | bioavailability ([2]; plasma, PO 5 mg/kg, MCT, Suspension): 16%
9 | Cc1c(-c2cc3cc(NC(=O)O[C@@H]4CCOC4)ncc3c(N)c2F)cnc2c1NCCO2 [Compound 403a, (R)-Tetrahydrofuran-3-yl (8-amino-7-fluoro-6-(8-methyl-2,3-dihydro-1H-pyrido[2,3-b][1,4]oxazin-7-yl)isoquinolin-3-yl)carbamate] |  | 48 nM | 10 ×10⁻⁶ cm/s |  | 7.7 mL/min/kg |  | Ki ([1]; HPK1 Ki): < 0.013 nM; bioavailability ([2]; plasma, PO 5 mg/kg, 10/90 DMSO/MCT, Suspension): 4%
10 | CNc1cncc(-c2cc3cc(NC(=O)OC4CC(C)(O)C4)ncc3c(N)c2F)c1C (centres unmarked) [Compound 527, 3-Hydroxy-3-methylcyclobutyl(8-amino-7-fluoro-6-(4-methyl-5-(methylamino)pyridin-3-yl)isoquinolin-3-yl)carbamate] |  |  | 13 ×10⁻⁶ cm/s | 738% | 11 mL/min/kg | 64 nM | bioavailability [2, 8]: 12%
